How the values were obtained:
crabgrass, large [1] = test: Test A pre-/postemergence herbicide test; format: in vivo, Digitaria sanguinalis; conditions: for Crabgrass, Large plant response rating: Preemergence, visual rating on 0 to 100 scale (0 no effect, 100 complete control)
Outline: (§1)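 Visual 0–100 ratings (100 = complete control) made about 10 days after treatment, greenhouse-held plants compared with untreated controls. Treatments: postemergence sprays on one- to two-leaf plants (2–10 cm tall) and preemergence directed soil sprays after planting in loam–sand, chemicals formulated in non-phytotoxic solvent containing surfactant.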

morningglory = test: Test A pre-/postemergence herbicide test; format: in vivo, Ipomoea spp.; conditions: for Morningglory plant response rating: Preemergence, visual rating on 0 to 100 scale (0 no effect, 100 complete control)
Outline: as §1

wheat = test: Test A pre-/postemergence herbicide test; format: in vivo, Triticum aestivum; conditions: for Wheat plant response rating: Preemergence, visual rating on 0 to 100 scale (0 no effect, 100 complete control)
Outline: as §1

crabgrass, large [2] = test: Test C pre-/postemergence herbicide test; format: in vivo, Digitaria sanguinalis; conditions: Preemergence; for Crabgrass, Large plant response rating: 31 g ai/ha
Outline: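 Greenhouse plants scored visually against untreated controls 13–15 days after treatment, 0 = no effect, 100 = complete control. Test chemicals in a non-phytotoxic solvent with surfactant were applied either to soil (loam/sand) at planting or to foliage of 1- to 4-leaf plants, 2–18 cm tall.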

kochia = test: Test C pre-/postemergence herbicide test; format: in vivo, Kochia scoparia; conditions: Preemergence; for Kochia plant response rating: 31 g ai/ha, scale 0 to 100, 0 is no effect and 100 is complete control
Excerpt: Seeds of plant species selected from blackgrass (Alopecurus myosuroides), ryegrass, Italian (Italian ryegrass, Lolium multiflorum), wheat (winter wheat, Triticum aestivum), galium (catchweed bedstraw, Galium aparine), corn (Zea mays), crabgrass, large (large crabgrass, Digitaria sanguinalis), foxtail, giant (giant foxtail, Setaria faberii), johnsongrass (Sorghum halepense), lambsquarters (Chenopodium album), morningglory (Ipomoea coccinea), nutsedge, yellow (yellow nutsedge, Cyperus esculentus), pigweed (Amaranthus retroflexus), ragweed (common ragweed, Ambrosia elatior), soybean (Glycine max), barnyardgrass (Echinochloa crus-galli), oilseed rape (Brassica napus), waterhemp (common waterhemp, Amaranthus rudis), kochia (Kochia scoparia), oat, wild (wild oat, Avena fatua), surinam grass (Brachiaria decumbens), foxtail, green (green foxtail, Setaria viridis), goosegrass (Eleusine indica), bromegrass, downy (downy bromegrass, Bromus tectorum), nightshade (eastern black nightshade, Solanum ptycanthum), cocklebur (common cocklebur, Xanthium strumarium), cupgrass, woolly (woolly cupgrass, Eriochloa villosa), bermudagrass (Cynodon dactylon), sunflower, (common oilseed sunflower, Helianthus annuus), Russian thistle (Salsola kali) and velvetleaf (Abutilon theophrasti) were planted into a blend of loam soil and sand and treated preemergence with test chemicals formulated in a non-phytotoxic solvent mixture which included a surfactant. At the same time, plants selected from these crop and weed species and also barley (winter barley, Hordeum vulgare), […]), chickweed (common chickweed, Stellaria media), deadnettle (henbit deadnettle, Lamium amplexicaule), and canarygrass (littleseed canarygrass, Phalaris minor) were planted in pots containing Redi-Earth® planting medium (Scotts Company, 14111 Scottslawn Road, Marysville, Ohio 43041) comprising spaghnum peat moss, vermiculite, wetting agent and starter nutrients and treated with postemergence applications of test chemicals formulated in the same manner. Plants ranged in height from 2 to 18 cm (1- to 4-leaf stage) for postemergence treatments. Treated plants and controls were maintained in a greenhouse for 13 to 15 days, after which time all species were compared to controls and visually evaluated. Plant response ratings, summarized in Table C, are based on a scale of 0 to 100 where 0 is no effect and 100 is complete control. A dash (-) response means no test result.

[3] = Postemergence, 125 g ai/ha, 0 to 100 scale, 0 no effect, 100 complete control
[4] = Postemergence, 500 g ai/ha, 0 to 100 scale (0 no effect, 100 complete control)
[5] = preemergence, 500 g ai/ha, 0 to 100 scale
[6] = scale 0 to 100 (0 no effect, 100 complete control)
[7] = 125 g ai/ha, scale 0 to 100 (0 no effect, 100 complete control)
[8] = 250 g ai/ha, scale 0 to 100 (0 no effect, 100 complete control)
[9] = scale 0 to 100, 0 is no effect and 100 is complete control

| SMILES | Plant response rating, Crabgrass, Large (crabgrass, large [1]; [3]) | Plant response rating, Crabgrass, Large (crabgrass, large [1]; [4]) | Crabgrass, Large plant response rating (crabgrass, large [1]; 125 g ai/ha) | Plant response rating, Crabgrass, Large (crabgrass, large [1]; [5]) | Plant response rating, Morningglory (morningglory; [3]) | Plant response rating, Morningglory (morningglory; [4]) | Morningglory plant response rating (morningglory; 125 g ai/ha) | Plant response rating, Morningglory (morningglory; [5]) | Plant response rating, Wheat (wheat; [3]) | Plant response rating, Wheat (wheat; [4]) | Wheat plant response rating (wheat; 125 g ai/ha) | Plant response rating, Wheat (wheat; [5]) | Crabgrass, Large plant response rating (crabgrass, large [2]; [6]) | Plant response rating, Crabgrass, Large (crabgrass, large [2]; 62 g ai/ha, scale 0 to 100) | Plant response rating, Crabgrass, Large (crabgrass, large [2]; [7]) | Plant response rating, Crabgrass, Large (crabgrass, large [2]; [8]) | Plant response rating, Kochia (kochia; 62 g ai/ha, scale 0 to 100) | Plant response rating, Kochia (kochia; [7]) | Crabgrass, Large plant response rating (crabgrass, large [2]; [9]) | Kochia plant response rating (kochia) |
| --- | --- | --- | --- | --- | --- | --- | --- | --- | --- | --- | --- | --- | --- | --- | --- | --- | --- | --- | --- | --- |
| O=C1NCC(c2ccc(Cl)c(F)c2)C1C(=O)Nc1ccccc1F (centres unmarked) [Compound 53] | 80 | 80 | 90 | 90 | 0 | 0 | 0 | 0 | 0 | 0 | 0 | 20 | 80 | 85 | 90 | 90 | 0 | 0 |  |  |
| O=C1NCC(c2ccc(F)c(Cl)c2)C1C(=O)Nc1cccc(F)c1F (centres unmarked) [Compound 59] | 70 | 90 | 90 | 90 | 0 | 0 | 0 | 0 | 0 | 60 | 0 | 0 | 85 | 85 | 90 | 100 | 0 | 10 |  |  |
| O=C1NCC(c2ccc3c(c2)OC(F)(F)O3)C1C(=O)Nc1cccc(F)c1F (centres unmarked) [Compound 62] | 80 | 90 | 90 | 90 | 0 | 0 | 0 | 0 | 20 | 60 | 0 | 0 | 85 | 90 | 95 | 98 | 0 | 15 |  |  |
| O=C1NCC(c2cccc(Br)c2)C1C(=O)Nc1cccc(F)c1F (centres unmarked) [Compound 64] | 80 | 80 | 80 | 90 | 0 | 0 | 0 | 0 | 0 | 40 | 0 | 0 | 85 | 90 | 95 | 95 | 0 | 20 |  |  |
| O=C1NCC(c2cccc(Br)c2)C1C(=O)Nc1ccccc1F (centres unmarked) [Compound 66] | 80 | 80 | 80 | 90 | 0 | 0 | 0 | 0 | 0 | 30 | 0 | 20 |  | 95 | 98 | 98 | 0 | 10 | 90 | 0 |
| O=C1NCC(c2cccc(OC(F)(F)F)c2)C1C(=O)Nc1cccc(F)c1F (centres unmarked) [Compound 68] | 90 | 90 | 90 | 90 | 0 | 0 | 0 | 0 | 0 | 20 | 0 | 20 |  | 90 | 95 | 95 | 0 | 0 | 90 | 0 |
